Measurements: US10111449B2, “Production procedure for a functional feed based in ellagic acid, cimenol and alliin from vegetable extracts to be used as pronutrient in animal feed” (BIOVET, S.A., priority 2015, dated 2018)

Assays:
yeasts and fungi = test: Kill of yeasts and fungi on contact with cimenol ring; type: cell-based; details: appropriate concentrations, 10 minutes of contact
Description: On yeasts and fungi, appropriate concentrations of cimenol ring achieves to kill 100% of microorganisms in just 10 minutes of contact. Cell lysis and release of cellular contents into the medium are observed. At electronic microscope, yeasts and fungi are malformed and have fractures in cell walls, especially those found in the proliferation phase.

[1] = system: bacteria, yeast and fungal; gastrointestinal pathogens; test: In vitro tests and field trials of cimenol ring against gastrointestinal pathogens
Description: In vitro tests and field trials indicate that cimenol ring is effective against bacteria, yeast and fungal; gastrointestinal pathogens whose mechanisms of action are: […]

cimenol [cimenol ring]
kill of microorganisms (yeasts and fungi): 100% | effectiveness against bacteria, yeast and fungal gastrointestinal pathogens [1]: effective
